Test results: patent US11555055B2, “Peptide inhibitors of insulin-degrading enzyme” (The Regents of the University of California, priority 2017, dated 2023)
“Also recorded” adds a separate entry of the source. Where a SMILES comes first, the peptide text is derived from it. Bridges are numbered along the chain shown (N, C = ends).

Legend:
[1] = system: 15 different proteases; test: Selectivity of P12-3A against 15 other proteases (MMPs and peptidases of different classes); type: biochemical; details: P12-3A 100 μM
Experimental: FIG. 8A-B. Selectivity of P12-3A for IDE vis-à-vis other proteases. Activity of P12-3A (100 μM) against (A) multiple matrix-metalloproteases (MMPs) and (B) multiple peptidases of different protease classes. […] Data are mean±SEM, n=8-16 per group. P<0.05 by 2-tailed Student's t-test. […] See Experimental Procedures for details. NEP, neprilysin; mCatD, murine cathepsin D; hCatD, human cathepsin D.
Degradation Assays—IDE activity was quantified by monitoring the degradation of (7-methoxycoumarin-4-yl)acetic acid-[…](2,4-dinitrophenyl) (FRET1, 5 μM) (49,55), fluoresceinated and biotinylated amyloid β-protein (FAβB; 500 nM) or recombinant human insulin (50 nM) in PBS supplemented with 0.05% BSA. FRET1 degradation was measured by changes in fluorescence (λex=340 nm, λem=420 nm); FAβB degradation was monitored by fluorescence polarization (λex=488 nm, λem=525 nm), as described (56); and insulin degradation was quantified by ELISA. In vitro activity assays incorporated recombinant human IDE (1 nM) purified from bacteria (35). For quantitation of insulin degradation in primary murine skin fibroblasts, cells (1×10^5/well) were plated in 96-well plates and maintained in DMEM supplemented with 10% fetal bovine serum (FBS), 2 mM glutamine, penicillin and streptomycin. […]

[2] = system: HaCaT cells; test: In vitro scratch wound assay, keratinocyte migration; type: cell-based; details: P12-3A 100 μM, 48 h after scratch wound, different concentrations of insulin
Experimental: FIG. 4A-F. Effects of P12-3A on cultured skin cells. A, Insulin concentrations as a function of time in logarithmically growing primary murine skin fibroblasts in the absence or presence of P12-3A (100 μM). […] Data are mean±SEM of 4 independent replications. *P<0.05, **P<0.01. B, Proliferation of cells in the absence or presence of P12-3A (100 μM). […] C,D,E, P12-3A (100 μM) potentiates insulin-induced collagen production in skin fibroblasts. Collagen production was assessed by COL1A1 mRNA levels (C), levels of hydroxyproline secreted into the medium (D), and cell-associated mature alpha-1 type I collagen levels detected by Western blotting (E). […] Migration of HaCaT cells 48 h after induction of a scratch wound in the presence of the indicated quantities of insulin and/or P12-3A (100 μM). […]
Insulin promotes wound healing and overall skin health by affecting a number of processes, including cell proliferation (2,3), cell migration (5,6), and the production and secretion of ECM components, particularly type I collagen (7-13). We therefore assessed the ability of P12-3A to influence these processes in cultured skin fibroblasts and keratinocytes. To that end, primary mouse skin fibroblasts were grown for 4 d in multiple concentrations of insulin in the presence or absence of P12-3A, and insulin concentration over time was monitored by ELISA. […]

`CC(C)C[C@H](NC(=O)[C@H](CO)NC(=O)[C@@H](N)CCC(N)=O)C(=O)N1CCC[C@H]1C(=O)N[C@@H](Cc1c[nH]c2ccccc12)C(=O)N[C@H]1CSSC[C@@H](C(=O)N[C@H](C(=O)N[C@H](C(N)=O)[C@@H](C)O)C(C)C)NC(=O)[C@H](Cc2c[nH]cn2)NC(=O)[C@@H]2CCCN2C(=O)[C@H](Cc2ccc(O)cc2)NC1=O` [Peptide P12-3A] (H-QSLPWCYPHCVT-NH2; disulfide 6-10 (inferred)) was tested, and the “inhibition of 15 different proteases” value [1] was “essentially no inhibition” and the migration of keratinocytes [2] was “significantly increase; also recorded: potentiates the migration of keratinocytes”.
